SMILES strings stand for the structures.

One assay relates to HepG-2 cells. Nature of the assay: In vitro anti-proliferative activity, MTT test, HepG-2. It counts as cell-based. As to conditions: for IC50: Homo sapiens, HepG2, MTT, HepG-2, read-out: In vitro cytotoxicity IC50 HepG-2. How it is done: (§1) The in vitro anti-proliferative effects of the four synthesised members were assessed against two cancer cell lines namely, hepatocellular carcinoma (HepG-2) and colorectal carcinoma (HCT-116) cell lines, by the standard MTT test[29]. HepG-2 and HCT-116 cell lines were precisely selected relying on their VEGF overexpression. […] The cytotoxicity results were established in Table 7.
(§2) The anti-proliferative activity of the four members was estimated by the MTT protocol as described[38–41] (Supplementary data).

For assay [1], the system named is HCT-116 cells. The assay can be described thus: In vitro anti-proliferative activity, MTT test, HCT-116. In kind it is cell-based. Particulars: Homo sapiens, read-out: In vitro cytotoxicity IC50 HCT-116. The protocol:
as §1, §2
Background: Tetrazolium assays rely on reduction of a dye to a coloured formazan, in cell work by metabolically active cells.

A further assay addresses T1, VEGFR-2 (Homo sapiens, UniProt P35968).
T1 construct: in vitro investigation against VEGFR-2 in HCT-116 cells; endogenous in cells; host or cells: HCT-116
Nature of the assay: Assessment of VEGFR-2 inhibition in HCT-116 cells. In kind it is cell-based. As to conditions: HCT-116 cells treated at concentrations equal to the cytotoxic ones; read-out: VEGFR-2 protein concentration (called VEGFR-2 inhibitory IC50 in text). An excerpt: The designed congeners were, also, subject to an in vitro investigation against VEGFR-2 in HCT-116 cells.
The four selected members were further assessed to measure their inhibitory activities against the VEGFR-2 enzyme following the protocol shown in Supplementary data.

A further assay relates to TNF-α. The assay can be described thus: In vitro immunomodulatory assay, TNF-α (ELISA) in HCT-116 cells. It counts as cell-based, human. Particulars: C-6 (21.8 µM), D-1 (3.08 µM), 48 h. The protocol:
(§3) Compounds C-6 and D-1 were further assayed for their immunomodulatory effect on HCT-116 cells. Two immunity-related markers were measured namely, human tumour necrosis factor alpha (TNF-α), and interleukin 6 (IL6). Dexamethasone, a potent inhibitor of both TNF-α and IL6, was used as a positive control.
(§4) The level of TNF-α and IL6 in cell culture supernatants was assessed by the ELISA technique according to the reported procedure[50]^,[51].
In general terms: In an ELISA, binding on a coated surface is turned into a signal by an enzyme label.

For a further assay, the system named is IL6. Nature of the assay: In vitro immunomodulatory assay, IL6 (ELISA) in HCT-116 cells. Particulars: C-6 (21.8 µM), D-1 (3.08 µM), 48 h. In kind it is cell-based. The protocol: as §3, §4
Assay [2] relates to HCT-116 cells. Nature of the assay: Annexin-V/propidium iodide apoptosis assay in HCT-116 cells. In kind it is cell-based. Particulars: HCT-116, 3.08 µM for 48 h. How it is done: Since the induction of apoptosis is a key determinant in the drug’s therapeutic outcome, the ability of the best cytotoxic member D-1 to induce apoptosis in colorectal carcinoma (HCT-116) cells was evaluated using Annexin-V/propidium iodide (PI) staining assay. […] The percentage of early and late apoptotic populations elevated from 0.7% and 1.73% in the untreated cells to 4.36% and 17.62% in the D-1 treated cells (Table 10 and Figures 11 and 12).
Annexin‐V‐FITC assay for compound D-1 on HCT-116 cells according to the reported procedure[15]^,[47–49] (Supplementary data).

In the next assay the test system is BAX. The assay can be described thus: BAX level in treated HCT-116 cells. In kind it is cell-based. The protocol: (§5) Upregulation of the proapoptotic genes in addition to the downregulation of the anti-apoptotic ones, thus, confirmed the apoptotic behaviour of the designed compound.
(§6) Estimation of caspase-3 levels after treatment of cells with compound D-1 was performed according to the protocol described by M. Andersson et al.[42]. While Bax and Bcl-2 cellular levels were evaluated for D-1 in HCT-116 cells according to the reported protocol[43] (Supplementary data).

The next assay relates to Bcl-2. Nature of the assay: Bcl-2 level in treated HCT-116 cells. In kind it is cell-based. How it is done: as §5, §6
Assay [3] deals with HCT-116 cells. The assay can be described thus: Cell cycle analysis by flow cytometry in HCT-116 cells. It counts as cell-based. Particulars: HCT-116, 3.08 µM for 48 h. An excerpt: Aiming to obtain a further understanding of the mechanism that triggers the anticancer activity of D-1, the cell cycle progression was investigated using flow cytometry in HCT-116 cells.
Based on the protocol referred to by Léonce et al., the flow cytometric analysis for congener D-1 was done[19]^,[44–46] (Supplementary data).

In a further assay the test system is caspase-8. The assay can be described thus: Caspase-8 concentration in treated HCT-116 cells. In kind it is cell-based.

T1 sequence (P35968 20-1356): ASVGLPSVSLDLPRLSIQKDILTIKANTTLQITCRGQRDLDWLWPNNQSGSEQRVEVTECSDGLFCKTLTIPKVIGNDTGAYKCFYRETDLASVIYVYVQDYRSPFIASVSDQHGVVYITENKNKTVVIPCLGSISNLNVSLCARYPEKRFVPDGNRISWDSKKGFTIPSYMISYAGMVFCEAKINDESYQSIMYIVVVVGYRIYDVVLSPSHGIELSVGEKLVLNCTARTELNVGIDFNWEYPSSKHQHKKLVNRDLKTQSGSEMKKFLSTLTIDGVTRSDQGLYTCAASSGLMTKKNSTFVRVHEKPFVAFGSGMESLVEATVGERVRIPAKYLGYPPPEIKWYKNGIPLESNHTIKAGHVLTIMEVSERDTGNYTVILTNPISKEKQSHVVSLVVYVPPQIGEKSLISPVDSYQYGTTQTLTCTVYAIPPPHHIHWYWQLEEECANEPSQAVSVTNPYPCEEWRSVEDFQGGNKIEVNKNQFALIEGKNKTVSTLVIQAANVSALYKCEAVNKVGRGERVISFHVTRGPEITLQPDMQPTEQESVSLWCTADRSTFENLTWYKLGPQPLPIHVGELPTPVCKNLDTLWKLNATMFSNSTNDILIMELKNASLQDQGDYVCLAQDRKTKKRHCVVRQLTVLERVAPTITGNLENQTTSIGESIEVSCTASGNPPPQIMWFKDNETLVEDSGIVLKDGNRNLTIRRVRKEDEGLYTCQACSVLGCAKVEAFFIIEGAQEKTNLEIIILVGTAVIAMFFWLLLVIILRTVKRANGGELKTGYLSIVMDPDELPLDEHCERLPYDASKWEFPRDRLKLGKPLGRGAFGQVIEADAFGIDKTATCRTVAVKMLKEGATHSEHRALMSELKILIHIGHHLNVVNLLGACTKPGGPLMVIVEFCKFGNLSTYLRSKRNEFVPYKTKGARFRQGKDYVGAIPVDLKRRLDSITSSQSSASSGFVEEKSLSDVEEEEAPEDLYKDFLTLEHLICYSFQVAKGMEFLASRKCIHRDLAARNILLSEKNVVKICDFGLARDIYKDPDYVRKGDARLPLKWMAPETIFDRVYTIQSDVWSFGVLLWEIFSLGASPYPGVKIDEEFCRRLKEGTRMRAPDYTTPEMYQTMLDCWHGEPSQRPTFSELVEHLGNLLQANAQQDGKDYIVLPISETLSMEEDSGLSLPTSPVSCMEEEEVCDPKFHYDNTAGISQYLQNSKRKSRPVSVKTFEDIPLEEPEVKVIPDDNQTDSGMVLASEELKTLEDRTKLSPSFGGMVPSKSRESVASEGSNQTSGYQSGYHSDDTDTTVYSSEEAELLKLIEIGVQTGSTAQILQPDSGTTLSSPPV

`CNC(=O)c1cc(Oc2ccc(NC(=O)Nc3ccc(Cl)c(C(F)(F)F)c3)cc2)ccn1` [Sorafenib, sorafenib, reference compound]: the values for the IC50 with HepG-2 cells and in the assay with HCT-116 cells [1] were 5.28 ± 0.21 µM and 7.28 ± 0.58 µM, respectively.
In the case of `CC(=NNC(=O)c1cccnc1)c1ccc(NC(=O)c2cccnc2)cc1` [Compound A-1, N-(4–(1-(2-Nicotinoylhydrazineylidene)ethyl)phenyl)nicotinamide], the IC50 in the assay on HepG-2 cells is 18.07 ± 0.052 µM; on VEGFR-2, 0.0221 µM; in the assay with HCT-116 cells [1], 34.9 ± 0.084 µM.
For the molecule `C[C@@H]1C[C@H]2[C@@H]3CCC4=CC(=O)C=C[C@]4(C)[C@@]3(F)[C@@H](O)C[C@]2(C)[C@@]1(O)C(=O)CO` [Dexamethasone, reference compound], the “% Inhibition of TNF-α” value with TNF-α is given as 82.47%. The “% Inhibition of IL6” value with IL6 came out at 93.15%.
Take `CC(=NNc1ccccc1)c1ccc(NC(=O)c2cccnc2)cc1` [Compound D-1, N-(4–(1-(2-Phenylhydrazineylidene)ethyl)phenyl)nicotinamide]: in the assay on HepG-2 cells, the IC50 was 4.09 ± 0.005 µM. For the same molecule, the “activity against HepG-2, fold more than sorafenib” value in the assay on HepG-2 cells (ratio of IC50 values versus sorafenib) is recorded as “about 1.2 fold”. In the assay with HCT-116 cells [2] (% given in Figure 11), the “Apoptosis Early” value stood at 4.36%, the “Apoptosis Late” value is listed as 17.62% and the “Apoptosis Total” value was 23.68%. The molecule further showed a Necrosis with HCT-116 cells [2] (% printed in Figure 11) of 1.7%. Besides, the IC50 at VEGFR-2 came to 0.0231 µM. For the same molecule, the “% Inhibition of TNF-α” value with TNF-α is on record as 91.19%. The “increase of BAX expression level” value in the assay on BAX (HCT-116 cells, versus control) is recorded as 9.52 fold. In the assay on BAX (treated HCT-116 cells), this molecule gave a BAX of 401.79 pg/mL. In addition, the “decrease of Bcl-2 level to” value in the assay on Bcl-2 (HCT-116 cells, versus control) is reported as 0.23 fold. The Bcl-2 with Bcl-2 (treated HCT-116 cells) came to 1.274 pg/mL. Besides, in the assay on IL6, the “% Inhibition of IL6” value is given as 85.64%. Moreover, in the assay on HCT-116 cells [3], the “%G0-G1” value was 41.26%, the “%G2-M” value is reported as 30.37%, the “%Pre-G1” value was 23.68% and the “%S” value is listed as 28.37%. Moreover, the “increase of caspase-8 level” value in the assay on caspase-8 (HCT-116 cells, versus control) is 10.41 fold. Moreover, the Caspase-8 in the assay with caspase-8 (treated HCT-116 cells) came to 523.61 pg/mL. Further, the IC50 with HCT-116 cells [1] is 3.08 ± 0.002 µM.
In the case of `CC(=NNC(=O)c1ccccc1)c1ccc(NC(=O)c2cccnc2)cc1` [Compound B-1, N-(4–(1-(2-Benzoylhydrazineylidene)ethyl)phenyl)nicotinamide], the IC50 in the assay with HepG-2 cells was found to be 17.4 ± 0.05 µM; at VEGFR-2, 0.08 µM; with HCT-116 cells [1], 19.6 ± 0.052 µM.
In the case of `CC(=NO)c1ccc(NC(=O)c2cccnc2)cc1` [Compound C-6, N-(4–(1-(Hydroxyimino)ethyl)phenyl)nicotinamide], the IC50 came out at 15.9 ± 0.045 µM with HepG-2 cells, 0.0157 µM at VEGFR-2 and 21.8 ± 0.057 µM with HCT-116 cells [1]. Further, in the assay on TNF-α, the “% Inhibition of TNF-α” value turned out to be 86.48%. In the assay with IL6, the “% Inhibition of IL6” value is 75.21%.

Source of the values: article PMC9116259, “Discovery of new nicotinamides as apoptotic VEGFR-2 inhibitors: virtual screening, synthesis, anti-proliferative, immunomodulatory, ADMET, toxicity, and molecular dynamic simulation studies” (Journal of Enzyme Inhibition and Medicinal Chemistry, 2022).
